Legend:
Assay in all cases: standardised AUC of viability dose-response curve (72 h) (fraction (0-1)); higher = less growth inhibition (more resistant)
[1] = system: HT1080
Outline: (§1)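 In 384-well plates, sarcoma cell lines were exposed for 72 h, in triplicate, to 2.5 µl of a 1:3 compound dilution series whose compound-plate concentrations ran from 10 mM to 0.0002 mM. Four-parameter log-logistic models were fitted per drug and cell line to ATPLite viability, scaled 1 (full) to 0 (none). From these fits, a modified drexplorer computeAUC gave the standardised area under the curve in log-dose space. Here 1 marks no response and 0 full response.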

[2] = system: A204
Outline: as §1

[3] = system: RD-ES
Outline: as §1

[4] = system: SW1353
Outline: as §1

[5] = system: SW872
Outline: as §1

[6] = system: SW684
Outline: as §1

[7] = system: MES-SA
Outline: as §1

[8] = system: SW982
Outline: as §1

[9] = system: KHOS-240S
Outline: as §1

[10] = system: SYO-1
Outline: as §1

[11] = system: KHOS-NP
Outline: as §1

[12] = system: HS729
Outline: as §1

[13] = system: VA-ES-BJ
Outline: as §1

[14] = system: RD
Outline: as §1

[15] = system: SK-LMS-1
Outline: as §1

[16] = system: G401
Outline: as §1

[17] = system: SK-ES-1
Outline: as §1

| Structure (SMILES) | standardised AUC [1] | standardised AUC [2] | standardised AUC [3] | standardised AUC [4] | standardised AUC [5] | standardised AUC [6] | standardised AUC [7] | standardised AUC [8] | standardised AUC [9] | standardised AUC [10] | standardised AUC [11] | standardised AUC [12] | standardised AUC [13] | standardised AUC [14] | standardised AUC [15] | standardised AUC [16] | standardised AUC [17] |
| --- | --- | --- | --- | --- | --- | --- | --- | --- | --- | --- | --- | --- | --- | --- | --- | --- | --- |
| C[C@@H]1COCCN1c1cc(-c2ccnn2C)c2ccnc(-c3ccn[nH]3)c2n1 | 0.686 | 0.689 | 0.673 | 0.791 | 0.706 | 0.828 | 0.641 | 0.615 | 0.603 | 0.606 | 0.826 | 0.782 | 0.626 | 0.75 | 0.751 | 0.819 | 0.637 |
| O=C(Cc1ccc(-c2ccc(OCCN3CCOCC3)cc2)cn1)NCc1ccccc1 [KX2-391] | 0.579 | 0.677 | 0.539 | 0.752 | 0.733 | 0.827 | 0.57 | 0.63 | 0.609 | 0.668 | 0.72 | 0.742 | 0.632 | 0.636 | 0.676 | 0.729 | 0.484 |
